Measurements from patent publication US20160362433A1, “ETHER COMPOUNDS FOR TREATMENT OF COMPLEMENT MEDIATED DISORDERS” (Achillion Pharmaceuticals, Inc., priority 2014, published 2016).

Target: T1, Human factor D (Homo sapiens, UniProt P00746)
T1 construct: Human factor D (purified from human serum, Complement Technology, Inc.); purchased Complement Technology, Inc; host or cells: human serum
Assay: Human Factor D Assay
Assay type: biochemical
Conditions: Human factor D 80 nM, substrate Z-L-Lys-SBzl, DTNB
Method: The assay of Example 8 was used to determine the IC50's of the compounds. Other standard factor D inhibition assays are also available.
Human factor D (purified from human serum, Complement Technology, Inc.) at 80 nM final concentration is incubated with test compound at various concentrations for 5 minutes at room temperature in 50 mM Tris, 1M NaCl, pH 7.5. A synthetic substrate Z-L-Lys-SBzl and DTNB (Ellman's reagent) are added to final concentrations of 100 μM each. The increase in color is recorded at OD405 nm in a microplate in kinetic mode over 30 minutes with 30 second time points in a spectrofluorimeter. IC50 values are calculated by non-linear regression from the percentage of inhibition of complement factor D activity as a function of test compound concentration.

T1 sequence (P00746 26-253): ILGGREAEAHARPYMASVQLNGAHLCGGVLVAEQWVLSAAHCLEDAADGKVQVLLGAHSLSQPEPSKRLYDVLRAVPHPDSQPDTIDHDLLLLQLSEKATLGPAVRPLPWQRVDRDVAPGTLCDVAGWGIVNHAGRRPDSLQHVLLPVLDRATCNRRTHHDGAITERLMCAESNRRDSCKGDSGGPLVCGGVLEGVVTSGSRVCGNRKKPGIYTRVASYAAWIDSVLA

CC(=O)c1cn(CC(=O)N2C[C@H](F)C[C@H]2C(=O)NCc2cccc(Cl)c2F)c2cc(OCc3cc4ccc3CCc3ccc(cc3)CC4)ccc12 [Compound 6, (2S,4R)-1-(2-(3-acetyl-6-((tricyclo[8.2.2.2^4,7]hexadeca-4,6,10,12,13,15-hexaen-5-ylmethyl)oxy)-1H-indol-1-yl)acetyl)-N-(3-chloro-2-fluorobenzyl)-4-fluoropyrrolidine-2-carboxamide]
IC50: 1 to 10 µM
